Assay results taken from US7074575B2, “Use of interleukin-19 to treat ovarian cancer” (ZymoGenetics, Inc., priority 2002, dated 2006).

B1: IL-19: interleukin-19 polypeptide, amino acid sequence SEQ ID NO:2; mature secreted form amino acid 23 (His) to 177 (Ala) (protein, listed as Homo sapiens)
chain: MKLQCVSLWLLGTILILCSVDNHGLRRCLISTDMHHIEESFQEIKRAIQAKDTFPNVTILSTLETLQIIKPLDVCCVTKNLLAFYVDRVFKDHQEPNPKILRKISSIANSFLYMQKTLRQCQEQRQCHCRQEATNATRVIHDNYDQLEVHAAAIKSLGELDVFLAWINKNHEVMSSA

System: Ovcar3 (ATCC #HTB-161) cells
Assay: Ovcar3 cytotoxicity assay (MTT readout)
Assay type: cell-based
Conditions: 72 hours
Protocol: We tested IL-19 in an Ovcar3 (ATCC #HTB-161) cytoxicity assay to measure the ability of IL-19 to prevent cells from growing during normal growth conditions. We used MTT reagent (Promega, Madison, USA) as our detection and readout for this cell inhibition assay. Procedure of a cytoxicity assay: Ovcar3 Cytotoxicity Assay
Ovcar3 (ATCC #HTB-161) cells were plated at a density of 5000 cells/100 ul/well in clear 96 well TC plates. Cells were plated in complete growth media consisting of RPMI containing 20% FBS, 0.01 mg/ml insulin, 2% HEPES, 1% Sodium Pyruvate and 1% Glutamax. Cells were incubated overnight at 37° C. in a 5% CO2 incubator.
The following day, media was removed from the cells and replaced with 100 ul/well of appropriately diluted samples. All sample dilutions were done in complete growth media. Samples were incubated on the cells for 72 hours.
After incubation, an MTT assay was done on the cells using the manufacturer's protocol (Promega #PAG4100). Dye solution was incubated on the cells 4 hours, followed by a 1 hour incubation with the stop solution. Absorbance was then read on the Victor II and percent inhibition was calculated from the wells containing complete growth media only.

| Molecule | inhibition of growth (3 uM) [%] | inhibition of growth (10 uM) [%] | inhibition of growth (31 uM) [%] | inhibition of growth (100 uM) [%] | inhibition of growth (1 ng/ml) [%] | inhibition of growth (10 ng/ml) [%] | inhibition of growth (100 ng/ml) [%] | inhibition of growth (1000 ng/ml) [%] |
| --- | --- | --- | --- | --- | --- | --- | --- | --- |
| CC1=C(/C=C/C(C)=C/C=C/C(C)=C/C(=O)O)C(C)(C)CCC1 [Retnoic Acid] | 29 | 34 | 43 | 83 | – | – | – | – |
| B1 | – | – | – | – | 4 | 9 | 23 | 52 |
